Test results published in a melting point compilation (Tetko et al.; mined from patent text by program, amines drawn as free bases though some values may be those of a salt).

SMILES	melting point [°C]
CC(C)(C)NCC(O)c1ccc(N)c(C(F)(F)F)c1 (stereo unspecified)	145 to 147
C#CC[C@H](c1nc2cc(Cl)ccc2c(=O)n1Nc1ccccc1)N(CCCN)C(=O)c1cc(F)cc(F)c1	165 to 167
CC(C)/C=C1\NC(=O)CC1=O	134 to 136
N#Cc1ccccc1-c1nc2ncccc2o1	166 to 167
CCOC(=O)C[C@@H]1c2ccccc2O[C@H]1c1ccccc1 (relative stereo)	42 to 43
CC1(C)Oc2c(c(=O)n(Cc3ccccc3)c3ccccc23)[C@@H](N2CCCC2=O)[C@@H]1O (relative stereo)	> 260
CN1C2CCC1CC(n1cc(-c3ccc(Oc4ccccc4)cc3)c3c(N)ncnc31)C2 (stereo unspecified)	238 to 250
CC1(CC2CCCC2)Cc2cc(O)c(Cl)c(Cl)c2C1=O (stereo unspecified)	188 to 190
CCN1C=C(C(=O)O)C(=O)CC1c1cccc(Cl)c1 (stereo unspecified)	143 to 145
C=Cc1cc(C(C)NC(=O)C#Cc2ccc(C(C)(C)C)cc2)cc(F)c1NS(C)(=O)=O (stereo unspecified)	108 to 110
Cc1noc(NS(=O)(=O)c2nccs2)c1Br	175 to 177
Cc1nc(C=O)cn1Cc1ccccc1	57 to 60
Cc1ccc(Nc2c(F)cccc2Cl)c(CC(=O)O)c1	152 to 154
CCCc1ccc(S(=O)(=O)n2c(CCC(=O)O)cc3cc(Cl)ccc32)cc1	144 to 148
Cc1cc2cc(CN3CCCC3)cnc2cc1NC(=O)c1ccc(-c2ccc(Cl)cc2)cc1F	195 to 198
CC(C)(C)c1cc(C=Cc2n[nH]c(=O)[nH]2)cc(C(C)(C)C)c1O	280 to 284
NCCN1CCC(Nc2nc3ccccc3n2Cc2cccs2)CC1	137
COc1ccc(NC(=O)CC23CC4CC(CC(C4)C2)C3)c(C)c1	156 to 157
FC(F)COc1cc(NC2=NCC3(CN4CCC3CC4)O2)ncn1 (stereo unspecified)	83 to 88
Cc1cnc(N)c2nc(C)n(CC(C)C)c12	178 to 180
C=CCOc1ccc(C(=O)Oc2ccc3ccc(OC(=O)C(=C)C)cc3c2)cc1	85
C[C@@H](CCC(=O)N[C@@H](Cc1ccccc1)C(=O)CSCc1ccco1)CNC(=O)COc1ccccc1	91 to 95
CCc1nc2cc(S(C)(=O)=O)c(Cl)cc2n1-c1ccc(CCNC(=O)NS(=O)(=O)c2ccc(C)cc2)cc1	105 to 118
Cc1[nH]c(=O)[nH]c1C(=O)c1ccccc1	250 to 254
COCNC(=O)NC1CC(C)(C)N(C)C(C)(C)C1	105

Continued, values first:

melting point [°C]	SMILES
38 to 39	CCCCOc1cccc(CCNC(=O)C(Br)=Cc2ccccc2)c1
103 to 104	CCN(CC)c1ccc(N=Nc2ccc(OCCOC)c(S(=O)(=O)Cl)c2)cc1
65 to 66	CCOC(=O)NCCc1cc2ccccc2s1
150 to 153	S=C1CNc2ccccc2CN1
98 to 99	CCOC(=O)C(=Cc1c(Cl)n(Cc2ccc(Cl)cc2)c2ccccc12)C(=O)OCC
99.6	O=C(NN=Cc1ccnc2ccccc12)c1cccnc1
168 to 170	COc1cc2ncnc(N3CCN(C(=O)NCc4cccs4)CC3)c2cc1OC
> 250	O=[N+]([O-])c1ccc(Oc2c(Cl)cc(S(=O)(=O)Nc3nc(-c4cccc([N+](=O)[O-])c4)cs3)cc2Cl)cc1
102 to 103	CCOC(=O)CCc1cc(O)nn1CC(C)C
123 to 124	N=C(Nc1cc(Cl)cc(NC(=O)/C=C/c2ccccc2Cl)c1)c1cccs1
107 to 108	CCCCCCn1c(=O)c2cn(CC)nc2n(C)c1=O
104 to 105	Cc1ccc(C)n1CCNC(=O)c1ccc(Cl)cc1
126 to 127	Cc1cc(C)cc(CC(=O)Nc2[nH]c(=O)[nH]c(=O)c2C(C)C)c1
118 to 120	Nc1ccc(N2CCC(N3CCOCC3)CC2)c(C(F)(F)F)c1
130 to 132	O=C(O)C=CC(=O)c1ccc(F)cc1
106 to 109	Cc1ccccc1C(Oc1cc(OCc2ccc3c(c2)OCO3)ccc1C#N)c1nnn[nH]1 (racemic)
